Measured values published in US7511167B2, “Two-photon dyes for real-time imaging of lipid rafts” (Korea University Industry and Academy Cooperation Foundation, priority 2006, dated 2009).
Several values for one entry are separate records, joined by “and”; a condition that tells them apart may be missing. Equal entries are not always repeated. Where two headings read alike, the source gives them in different places.

Experiments:
[1] = cited from earlier work
[2] = Reflection tests of polarity of liposomes (Test Example 3); format: physicochemical; details: for fluorescence wavelength (peaks): DOPC liposomes; for maximum fluorescence wavelength: DPPC liposomes
Method: Three kinds of liposomes having different fluidity (polarity) were prepared to examine how much the two-photon dyes prepared in Example 1 and Comparative Example 1 reflected the polarity of the liposomes. Specifically, DOPC liposomes were prepared from 1,2-dioleoyl-sn-glycerol-3-phosphocholine (DOPC) having unsaturated fatty acids so as to reflect the fluidity of phospholipids of plasma membranes. The DOPC liposomes were relatively fluid. DOPC/Sphingo/Chol liposomes were composed of DOPC, sphingomyelin and cholesterol in the same ratio so as to simultaneously reflect phospholipids and lipid rafts. DPPC liposomes were prepared from 1,2-dipalmitoyl-sn-glycerol-3-phosphocholine (DPPC) so as to reflect lipid rafts. The DPPC liposomes were in a gel state and had lowest fluidity. Next, the three kinds of liposomes were stained with Laurdan and TPD1, and their spectral properties were examined. Referring to FIGS. 3a (Laurdan) and 3b (TPD1), the maximum one-photon absorption wavelengths of Laurdan and TPD1 were in the range of 360-395 nm, regardless of the kind of the liposomes. However, the fluorescence intensity of the liposomes increased with the hydrophobicity of the liposomes in the order: DOPC<DOPC/Sphingo/Chol<DPPC. […] Referring to FIG. 3c, the maximum fluorescence wavelength of Laurdan in DPPC is 440 nm and the fluorescence spectrum of Laurdan in DOPC is broader.
In the meanwhile, the fluorescence wavelength bands of Laurdan in DOPC/Sphingo/Chol and DPPC were confirmed to overlap almost completely. […] In contrast, TPD1 prepared in Example 1 emitted fluorescence of 442 nm in DPPC and fluorescence of 486 nm in DOPC (FIG. 3d). In addition, the fluorescence spectrum of TPD1 in the DOPC/Sphingo/Chol liposomes is broad and almost the same as the sum of the spectra in the DPPC and DOPC liposomes.
On the other hand, the different kinds of liposomes were stained with TPD4 prepared in Example 4, and their fluorescence spectra were examined. Referring to FIG. 4, the fluorescence intensity of the fluid DOPC liposomes (in a hydrophilic environment) was ⅛ of that of the DPPC liposomes and about 1/6.5 of that of the DOPC/Sphingo/Chol liposomes.

[3] = Spectroscopic measurements of the dyes in four solvents (Test Example 2); format: physicochemical; details: for quantum yield in water relative to that in ethanol: water versus ethanol
Method: The two-photon dyes prepared in Example 1 and Comparative Example 1 were dissolved in four solvents (hexane, DMF, ethanol and water), respectively. The one-photon maximum absorption wavelength (λmax), one-photon maximum emission wavelength (λ^f1max), two-photon maximum absorption wavelength (λ^(2)max), quantum yield (Φ) and two-photon absorption efficiency (δmax) of the solutions were measured, and the results are shown in Table 1. The absorption spectra were measured on a Hewlett-Packard 8453 diode array spectrophotometer. The fluorescence spectra were obtained with an Aminco Bowman series 2 luminescence spectrometer. The two-photon absorption efficiency means a maximum value of a two-photon cross section (δTPA). The two-photon cross section can be calculated by the following equation 1: […]
wherein the subscripts s and r represent sample and reference molecules, respectively, δ represents the two-photon cross section, S represents the strength of signals collected by a CCD detector, Φ represents the fluorescence quantum efficiency, φ represents the total fluorescence collection efficiency of an experimental system, c represents the number density of the molecules within each of the solutions, and δr represents the two-photon cross section of reference molecules.

[4] = Reflection tests of polarity of solvents, fluorescence spectra (Test Example 1); format: physicochemical
Method: Time-resolved fluorescence (TRF) spectra of the two-photon dyes prepared in Comparative Example 1 and Example 1 were measured to examine changes in the one-photon fluorescence wavelength of the dyes according to the polarity of solvents. In this test, hexane, DMF, ethanol and water were used as solvents. The polarity of the solvents increases in the order: hexane<DMF<ethanol<water. […] Since Laurdan has a long hydrocarbon tail, the dye molecules surrounded by the adjacent dye molecules were placed in a hydrophobic environment, and as a result, a blue shift was observed. […] From these observations, it can be concluded that Laurdan is not suitable for use in real-time imaging of lipid rafts.
On the other hand, time-resolved fluorescence (TRF) spectra of the two-photon dye (TPD4) prepared in Example 4 were measured to examine changes in the one-photon fluorescence wavelength of the dye according to the polarity of solvents. In this test, THF, DMF, ethanol and ethanol/water were used as solvents. The polarity of the solvents increases in the order: THF<DMF<ethanol<ethanol/water. […] As mentioned previously, the reason for this is because the fluorescence quantum yield and fluorescence lifetime of TPD4 in a hydrophilic environment were decreased drastically. Therefore, lipid rafts can be directly observed due to the difference in fluorescence intensity.

A431 cells = assay: Cytotoxicity test, MTT assay (Test Example 7); format: cell-based; details: 1×10^−5 M, DMSO (1%) reference, incubation for 6 hours
From the text: To evaluate whether the two-photon dyes of the present invention are cytotoxic or not, MTT assay was done on the two-photon dye prepared in Example 1. Specifically, A431 cells were stained with TPD1 (1×10^−5 M) and DMSO (1%) was used as a reference solvent. […] Therefore, it can be concluded that the two-photon dye of the present invention is suitable for imaging of living cells.

fluorescence wavelength (peaks) [2] | maximum fluorescence wavelength [2] [nm] | Φ (quantum yield) ([3]; solvent DMF) | δmax (two-photon absorption efficiency) ([3]; solvent DMF) [GM] | λ^(2)max (two-photon maximum absorption wavelength) ([3]; solvent DMF) | λ^flmax (one-photon maximum emission wavelength) ([3]; solvent DMF) | λmax (one-photon maximum absorption wavelength) ([3]; solvent DMF) | Φ (quantum yield) ([3]; solvent ethanol) | δmax (two-photon absorption efficiency) ([3]; solvent ethanol) [GM] | λ^(2)max (two-photon maximum absorption wavelength) ([3]; solvent ethanol) | λ^flmax (one-photon maximum emission wavelength) ([3]; solvent ethanol) | λmax (one-photon maximum absorption wavelength) ([3]; solvent ethanol) | Φ (quantum yield) ([3]; solvent hexane) | λ^flmax (one-photon maximum emission wavelength) ([3]; solvent hexane) | λmax (one-photon maximum absorption wavelength) ([3]; solvent hexane) | Φ (quantum yield) ([3]; solvent water) | λ^flmax (one-photon maximum emission wavelength) ([3]; solvent water) | λmax (one-photon maximum absorption wavelength) ([3]; solvent water) | quantum yield in water relative to that in ethanol [3] | SMILES | further results
439 nm and 484 nm | 440 | 1.00 | 50 | 780 | 454 | 356 | 1.00 | 57 | 780 | 487 | 363 | 0.11 | 407 | 344 | 0.01 | 431 | 354 | 1/100 | CCCCCCCCCCCC(=O)c1ccc2cc(N(C)C)ccc2c1 [Laurdan, reference compound] | fluorescence emitted in lipid raft domains in a hydrophobic environment ([1]; cell membranes): 400 to 460 nm; fluorescence emitted in phospholipid domains in a hydrophilic environment ([1]; cell membranes): 470 to 530 nm; fluorescence emitted by the precipitate ([1]; water): 450 nm; solubility in water ([1]; water): barely soluble in water; solubility in water ([4]; water): substantially insoluble in water; wavelength of light emitted in water ([4]; water): 400-460 nm; maximum fluorescence wavelength in water with the highest polarity ([4]; water versus less polar solvents): decreased (i.e. blue-shifted)
486 nm | 442 | 0.36 | 167 | 780 | 446 | 363 | 0.43 | 153 | 780 | 494 | 383 | 0.10 | 404 | 345 | 0.11 | 522 | 384 | ¼ | CCCCCCCCCCCC(=O)c1ccc2cc(N(C)CC(=O)O)ccc2c1 [TPD1] | fluorescence intensity relative to Laurdan ([2]; in all liposomes): 2-5 times; cytotoxicity (cell viability, MTT) versus reference solvent (A431 cells): no significant difference in cytotoxicity; two-photon absorption efficiency relative to the dye of Comparative Example 1 [3]: about three to six times; two-photon absorption efficiency, maximum ([3]; over the solvents): 323 GM; two-photon absorption efficiency, minimum ([3]; over the solvents): 153 GM; δmax (two-photon absorption efficiency) ([3]; solvent water): 323 GM; λ^(2)max (two-photon maximum absorption wavelength) ([3]; solvent water): 820; maximum fluorescence wavelength as the polarity of the solvents increased ([4]; hexane<DMF<ethanol<water): increased
 |  |  |  |  |  |  |  |  |  |  |  |  |  |  |  |  |  |  | CCCCCCCCCC(=O)/C=C/c1ccc2cc(N(C)CC(=O)OC(C)(C)C)ccc2c1 [TPD4] | fluorescence intensity of DOPC liposomes relative to DPPC liposomes ([2]; stained liposomes): ⅛; fluorescence intensity as the polarity of the solvents increased ([4]; THF<DMF<ethanol<ethanol/water): reduced drastically
